8 molecules from patent publication US20240316054A1, “NOVEL PLK1 PROTEIN DEGRADATION-INDUCING COMPOUND” (UPPTHERA, INC., priority 2021, published 2024) can be followed below.

A value given as a limit tells only on which side of the number the result lay.

For one experiment, the target named is T1, PLK1 (Homo sapiens, UniProt P53350).
T1 construct: endogenous in cells; host or cells: HeLa cells stably expressing LgBit, with CRISPR/Cas9 knock-in of HiBit at the PLK1 C-terminus
Nature of the experiment: Luciferase (HiBit) assay of PLK1 degradation in HeLa LgBit (Plk1-HiBit KI) cells. The experiment is classed as cell-based. As to conditions: for PLK1 (luminescence value): released after thymidine block, compound 300 nM, luminescence at 9 hours, DMSO-only control. The source says:
(§1) Cell lines were constructed by transfecting LgBit vector into HeLa and HEK293T cell lines to be stably expressed. Then, gRNA and a donor were created to express the HiBit amino acid sequence behind the C-terminus of the PLK1 and BRD4 proteins contained in each cell, and then inserted into the cells together with a vector capable of expressing CRISPR/Cas9. Only cells that had undergone knock-in after completion of insertion were selected and passaged to be used.
(§2) Compounds according to Comparative Examples and Examples were completely dissolved in DMSO (Sigma-Aldrich Cat. No. D2438, Lot. No. RNBJ6524) and used in the following experiments. The compound of Comparative Example was the HBL-4 compound disclosed in the document (see Mu et al., Biochem Biophys Res Commun., 2020, 521(4): 833), which targets PLK1 and BRD4 like the compounds of the present invention, and the DMSO-only treatment group was used as the control group.
As to HeLa LgBit (Plk1-HiBit KI), cells were released after thymidine block, and then treated with compounds, and the process was as follows. Thymidine (Sigma-Aldrich Cat. No. T9250-5G) was completely dissolved in DW and used in the experiment. For thymidine block, cells were treated with 2 mM thymidine and incubated for 24 hours. For release and chemical treatment, the medium was suctioned and washed with 1×PBS. TyppLE™ was added and the cells were incubated for 5 min in a 37° C. CO2 incubator. Cells neutralized by adding complete medium were counted using the counter. For each well of a 96-well white plate (SPL), 3.3×10^4 cells were seeded in a total culture medium volume of 150 μl and incubated in a CO2 incubator.
(§3) Each cell line was incubated in a CO2 incubator for 18 hours, and then Endurazine was added to each well to reach 4% of the total volume. Here, the concentration of each compound after the addition was 300 nM for HeLa LgBit (Plk1-HiBit KI) and 100 nM for HEK293T LgBit (BRD4-HiBit KI). Then, the wavelength of the plate reader was set to 470 to 480 nm, and luminescence was tracked in real time.
(With HiBiT, luminescence reflects the tagged protein that the partner subunit can reach.)

The next experiment deals with T2, BRD4 (Homo sapiens, UniProt O60885).
T2 construct: endogenous in cells; host or cells: HEK293T cells stably expressing LgBit, with CRISPR/Cas9 knock-in of HiBit at the BRD4 C-terminus
Nature of the experiment: Luciferase (HiBit) assay of BRD4 degradation in HEK293T LgBit (BRD4-HiBit KI) cells. The experiment is classed as cell-based. The note with it: for BRD4 (luminescence value): compound 100 nM, luminescence at 8 hours, DMSO-only control.
Excerpt: as §1, §2
As to HEK293T LgBit (BRD4-HiBit KI), 4×10^4 cells were seeded in each well of a 96-well white plate (SPL) and cultured in a total culture medium volume of 150 μl.
as §3

T1 sequence (P53350 whole entry): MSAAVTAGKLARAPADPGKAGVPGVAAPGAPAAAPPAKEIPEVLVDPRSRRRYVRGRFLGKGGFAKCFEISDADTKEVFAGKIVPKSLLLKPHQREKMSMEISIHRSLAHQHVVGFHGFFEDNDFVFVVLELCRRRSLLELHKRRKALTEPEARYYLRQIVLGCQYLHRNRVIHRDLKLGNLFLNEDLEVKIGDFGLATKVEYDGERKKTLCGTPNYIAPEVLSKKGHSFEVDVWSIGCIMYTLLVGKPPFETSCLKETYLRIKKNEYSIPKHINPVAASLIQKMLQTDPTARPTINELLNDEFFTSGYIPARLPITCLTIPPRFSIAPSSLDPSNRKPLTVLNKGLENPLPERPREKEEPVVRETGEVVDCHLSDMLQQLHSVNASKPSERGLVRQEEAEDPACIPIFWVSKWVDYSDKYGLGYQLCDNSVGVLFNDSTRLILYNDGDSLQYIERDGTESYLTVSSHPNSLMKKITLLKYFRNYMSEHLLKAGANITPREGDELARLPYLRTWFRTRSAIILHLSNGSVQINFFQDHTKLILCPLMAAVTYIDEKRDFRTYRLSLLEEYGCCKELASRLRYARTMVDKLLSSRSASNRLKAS

At PLK1 (300 nM, 9 hours), `CC[C@@H]1C(=O)N(C)c2cnc(Nc3ccc(C(=O)NCCOCCOCCNc4cccc5c4C(=O)N(C4CCC(=O)NC4=O)C5=O)cc3OC)nc2N1C1CCCC1` (stereo partly drawn) [Comparative Example 1, reference compound] showed a PLK1 degradation level of at least 80%. In addition, the “PLK1 (luminescence value)” value at PLK1 is reported as 0.148. Also, the BRD4 degradation level on BRD4 (100 nM, 8 hours) is listed as at least 80%. Besides, the “BRD4 (luminescence value)” value on BRD4 came out at 0.223.

Regarding `CC[C@@H]1C(=O)N(C)c2cnc(Nc3ccc(C(=O)NCCOCCOCCNc4cccc5c4C(=O)N(C4CCC(=O)NC4=O)C5=O)cc3)nc2N1C1CCCC1` (stereo partly drawn) [Compound 4, 4-(((R)-8-cyclopentyl-7-ethyl-5-methyl-6-oxo-5,6,7,8-tetrahydropteridin-2-yl)amino)-N-(2-(2-(2-((2-(2,6-dioxopiperidin-3-yl)-1,3-dioxoisoindolin-4-yl)amino)ethoxy)ethoxy)ethyl)benzamide], the “PLK1 (luminescence value)” value at PLK1 is 0.208. For the same molecule, the “BRD4 (luminescence value)” value at BRD4 was 0.692.

For the molecule `CC[C@@H]1C(=O)N(C)c2cnc(Nc3ccc(C(=O)NCCOCCOCCOCCOCCNc4cccc5c4C(=O)N(C4CCC(=O)NC4=O)C5=O)cc3OC)nc2N1C1CCCC1` (stereo partly drawn) [Compound 5, 4-(((R)-8-cyclopentyl-7-ethyl-5-methyl-6-oxo-5,6,7,8-tetrahydropteridin-2-yl)amino)-N-(14-((2-(2,6-dioxopiperidin-3-yl)-1,3-dioxoisoindolin-4-yl)amino)-3,6,9,12-tetraoxatetradecyl)-3-methoxybenzamide], on PLK1, the “PLK1 (luminescence value)” value turned out to be 0.140. The “BRD4 (luminescence value)” value on BRD4 is 0.491.

Consider `CC[C@@H]1C(=O)N(C)c2cnc(Nc3ccc(C(=O)N[C@H]4CCN(C(=O)CCC(=O)N5CCN(c6cccc7c6C(=O)N(C6CCC(=O)NC6=O)C7=O)CC5)C4)cc3OC)nc2N1C1CCCC1` (stereo partly drawn) [Compound 6, 4-(((R)-8-cyclopentyl-7-ethyl-5-methyl-6-oxo-5,6,7,8-tetrahydropteridin-2-yl)amino)-N-((3S)-1-(4-(4-(2-(2,6-dioxopiperidin-3-yl)-1,3-dioxoisoindolin-4-yl)piperazin-1-yl)-4-oxobutanoyl)pyrrolidin-3-yl)-3-methoxybenzamide], for which the “PLK1 (luminescence value)” value at PLK1 is listed as 0.313. Further, the “BRD4 (luminescence value)” value on BRD4 came to 0.731.

Consider `CC[C@@H]1C(=O)N(C)c2cnc(Nc3ccc(C(=O)NC4CCN(C(=O)CCN5CCN(c6cccc7c6C(=O)N(C6CCC(=O)NC6=O)C7=O)CC5)CC4)cc3OC)nc2N1C1CCCC1` (stereo partly drawn) [Compound 7, 4-(((R)-8-cyclopentyl-7-ethyl-5-methyl-6-oxo-5,6,7,8-tetrahydropteridin-2-yl)amino)-N-(1-(3-(4-(2-(2,6-dioxopiperidin-3-yl)-1,3-dioxoisoindolin-4-yl)piperazin-1-yl)propanoyl)piperidin-4-yl)-3-methoxybenzamide], for which, on PLK1, the “PLK1 (luminescence value)” value was found to be 0.120. On BRD4, the “BRD4 (luminescence value)” value amounted to 0.488.

As to `CC[C@@H]1C(=O)N(C)c2cnc(Nc3ccc(C(=O)NC4CCN(C(=O)CCCNc5cccc6c5C(=O)N(C5CCC(=O)NC5=O)C6=O)CC4)cc3OC)nc2N1C1CCCC1` (stereo partly drawn) [Compound 8, 4-(((R)-8-cyclopentyl-7-ethyl-5-methyl-6-oxo-5,6,7,8-tetrahydropteridin-2-yl)amino)-N-(1-(4-((2-(2,6-dioxopiperidin-3-yl)-1,3-dioxoisoindolin-4-yl)amino)butanoyl)piperidin-4-yl)-3-methoxybenzamide], the “PLK1 (luminescence value)” value on PLK1 amounted to 0.204. The “BRD4 (luminescence value)” value on BRD4 was 0.394.

As to `COc1cc(C(=O)NCCOCCOCCNc2cccc3c2C(=O)N(C2CCC(=O)NC2=O)C3=O)ccc1Nc1ncc2c(n1)N(C1CCCCC1)[C@H](C)C(=O)N2C` (stereo partly drawn) [Compound 9, 4-(((R)-8-cyclohexyl-5,7-dimethyl-6-oxo-5,6,7,8-tetrahydropteridin-2-yl)amino)-N-(2-(2-(2-((2-(2,6-dioxopiperidin-3-yl)-1,3-dioxoisoindolin-4-yl)amino)ethoxy)ethoxy)ethyl)-3-methoxybenzamide], at PLK1, the “PLK1 (luminescence value)” value came to 0.207. In addition, the “BRD4 (luminescence value)” value on BRD4 is reported as 0.484.

In the case of `CC[C@@H]1C(=O)N(C)c2cnc(Nc3ccc(C(=O)N[C@H]4CC[C@H](N5CCN(CCOCCNc6cccc7c6C(=O)N(C6CCC(=O)NC6=O)C7=O)CC5)CC4)cc3OC)nc2N1C1CCCC1` (stereo partly drawn) [Compound 10, 4-(((R)-8-cyclopentyl-7-ethyl-5-methyl-6-oxo-5,6,7,8-tetrahydropteridin-2-yl)amino)-N-((1r,4R)-4-(4-(2-(2-((2-(2,6-dioxopiperidin-3-yl)-1,3-dioxoisoindolin-4-yl)amino)ethoxy)ethyl)piperazin-1-yl)cyclohexyl)-3-methoxybenzamide], the “PLK1 (luminescence value)” value on PLK1 is 0.343. In addition, the “BRD4 (luminescence value)” value on BRD4 amounted to 0.629.
